What all share (test): potency against CXCR6 with APJ panel – cell-based, beta-arrestin, DiscoveRx, uHTS hits, dose response (AID 624129)
Experiment [1] concerns the target C-X-C chemokine receptor type 6 (Homo sapiens) (UniProt O00574). The conditions noted are these: CXCR6 beta-arrestin (DiscoveRx) antagonist cell assay; for inhibition: CXCR6, run 1, dose range 2, at 80 µM (top of the series).
Experiment [2] addresses C-C chemokine receptor type 6 (Homo sapiens) (UniProt P51684). The conditions noted are these: CXCR6 beta-arrestin (DiscoveRx) antagonist cell assay.
In experiment [3] the target is Beta-galactosidase (Escherichia coli) (UniProt Q8VNN2). The conditions noted are these: CXCR6 beta-arrestin (DiscoveRx) antagonist cell assay, b-galactosidase.
Experiment [4] deals with Apelin receptor (Homo sapiens) (UniProt P35414). Particulars: CXCR6 beta-arrestin (DiscoveRx) antagonist cell assay, APJ.
Setting [5] is: CXCR6, dose range 1, mean IC50 across replicates.
The mark [6] stands for this setting: CCR6, dose range 1, mean IC50 across replicates.
Where [7] appears, read: dose range 1, mean IC50 across replicates.

Active and inactive are the calls of the source. The rule behind the calls is not given here.

By IC50 is commonly meant the concentration that gives 50% inhibition. As usually defined, the inhibition is the drop in the measured response relative to a control, in per cent.

C-X-C chemokine receptor type 6 (Homo sapiens), sequence (O00574 whole entry, looked up): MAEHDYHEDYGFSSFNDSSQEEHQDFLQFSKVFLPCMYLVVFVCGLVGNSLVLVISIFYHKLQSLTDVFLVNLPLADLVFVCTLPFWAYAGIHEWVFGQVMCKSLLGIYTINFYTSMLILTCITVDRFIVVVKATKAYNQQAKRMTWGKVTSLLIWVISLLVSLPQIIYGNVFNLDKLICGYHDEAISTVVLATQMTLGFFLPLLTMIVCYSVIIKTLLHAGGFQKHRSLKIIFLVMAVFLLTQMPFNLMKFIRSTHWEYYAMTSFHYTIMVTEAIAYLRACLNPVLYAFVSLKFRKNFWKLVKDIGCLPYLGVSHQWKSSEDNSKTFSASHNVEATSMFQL
Beta-galactosidase (Escherichia coli), sequence (Q8VNN2 whole entry, looked up): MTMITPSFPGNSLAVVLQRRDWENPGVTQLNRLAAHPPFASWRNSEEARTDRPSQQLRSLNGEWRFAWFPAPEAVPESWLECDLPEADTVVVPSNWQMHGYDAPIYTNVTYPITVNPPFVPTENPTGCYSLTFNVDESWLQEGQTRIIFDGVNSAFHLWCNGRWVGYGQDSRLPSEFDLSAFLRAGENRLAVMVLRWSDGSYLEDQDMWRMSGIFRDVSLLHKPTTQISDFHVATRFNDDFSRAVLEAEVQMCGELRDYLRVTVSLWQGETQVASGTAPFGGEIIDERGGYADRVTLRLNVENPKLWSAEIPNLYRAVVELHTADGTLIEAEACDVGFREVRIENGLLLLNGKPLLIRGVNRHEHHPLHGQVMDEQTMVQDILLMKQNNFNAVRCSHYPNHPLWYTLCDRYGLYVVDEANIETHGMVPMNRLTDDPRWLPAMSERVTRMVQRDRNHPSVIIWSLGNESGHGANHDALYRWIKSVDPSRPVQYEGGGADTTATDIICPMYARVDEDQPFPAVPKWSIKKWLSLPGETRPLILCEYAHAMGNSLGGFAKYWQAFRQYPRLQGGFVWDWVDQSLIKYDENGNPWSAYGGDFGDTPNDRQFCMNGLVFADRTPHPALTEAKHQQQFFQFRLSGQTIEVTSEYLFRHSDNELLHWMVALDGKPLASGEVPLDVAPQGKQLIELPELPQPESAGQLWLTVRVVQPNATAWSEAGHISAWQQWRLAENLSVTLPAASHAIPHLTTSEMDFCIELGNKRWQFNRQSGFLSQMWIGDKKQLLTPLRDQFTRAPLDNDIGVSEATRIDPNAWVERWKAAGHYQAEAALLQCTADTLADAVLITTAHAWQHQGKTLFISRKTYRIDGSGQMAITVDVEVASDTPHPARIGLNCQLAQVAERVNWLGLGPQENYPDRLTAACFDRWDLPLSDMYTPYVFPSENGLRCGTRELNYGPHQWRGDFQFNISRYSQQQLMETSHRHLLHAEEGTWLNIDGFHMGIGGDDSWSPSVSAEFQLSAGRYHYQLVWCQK

With `C/C(=N\NC(=O)COc1ccccc1-c1ccccc1)c1ccccn1`, the IC50 was 2.76 µM in experiment [1] (CXCR6, dose range 1); 2.31 µM in experiment [1] (setting [5]); 2.01 µM in experiment [1] (CXCR6, run 1, dose range 2); 2.94 µM in experiment [1] (CXCR6, run 2, dose range 1); 1.51 µM in experiment [1] (CXCR6, run 2, dose range 2); 2.07 µM in experiment [2] (CCR6, dose range 1). The IC50 is 2.25 µM in experiment [2] (setting [6]); 2.44 µM in experiment [2] (CCR6, run 2, dose range 1); > 80 µM (inactive) in experiment [3] (dose range 1); > 80 µM in experiment [3] (setting [7]); 2.32 µM in experiment [4] (dose range 1); 2.46 µM in experiment [4] (setting [7]). Besides, the IC50 in experiment [4] (run 2, dose range 1) is 2.59 µM; in experiment [4] (run 3, dose range 1), > 80 µM.

For `CCOc1ccc2nc(NC(=O)c3ccccn3)sc2c1`, the IC50 entry in experiment [1] (CXCR6, dose range 1) is “inactive”. Further, the IC50 is 13.5 µM in experiment [1] (setting [5]); 12.7 µM in experiment [1] (CXCR6, run 2, dose range 1); 7.32 µM in experiment [2] (CCR6, dose range 1); 8.78 µM in experiment [2] (setting [6]); 10.2 µM in experiment [2] (CCR6, run 2, dose range 1); > 80 µM (inactive) in experiment [3] (dose range 1). Moreover, the IC50 was > 80 µM in experiment [3] (setting [7]); 11.7 µM in experiment [4] (dose range 1); 19.5 µM in experiment [4] (setting [7]); 35 µM in experiment [4] (run 2, dose range 1); 11.8 µM in experiment [4] (run 3, dose range 1). For the same compound, the inhibition in experiment [1] was determined as 92.1%.

Turning to `O=[N+]([O-])c1ccc(S(=O)(=O)c2ccccc2)nc1`, the IC50 in experiment [1] (CXCR6, dose range 1) is > 80 µM (inactive); in experiment [1] (setting [5]), > 80 µM; in experiment [1] (CXCR6, run 2, dose range 1) it was > 80 µM; in experiment [2] (setting [6]), > 80 µM; in experiment [2] (CCR6, run 2, dose range 1), > 80 µM; in experiment [3] (dose range 1), > 80 µM (inactive). Moreover, the 50% inhibitory concentration (IC50) is > 80 µM in experiment [3] (setting [7]); > 80 µM in experiment [4] (setting [7]); > 80 µM in experiment [4] (run 2, dose range 1); > 80 µM in experiment [4] (run 3, dose range 1). In addition, the inhibition in experiment [1] was found to be 19.8%.

Take `N#Cc1c(C#N)c(SSc2c(C#N)c(C#N)c(N)n2-c2ccccc2)n(-c2ccccc2)c1N`: the IC50 was 10.7 µM in experiment [1] (setting [5]); 10.6 µM in experiment [1] (CXCR6, run 1, dose range 2); > 80 µM in experiment [1] (CXCR6, run 2, dose range 1); 10.9 µM in experiment [1] (CXCR6, run 2, dose range 2); > 80 µM (inactive) in experiment [2] (CCR6, dose range 1); > 80 µM in experiment [2] (setting [6]). The IC50 in experiment [2] (CCR6, run 2, dose range 1) is > 80 µM; in experiment [3] (dose range 1), > 80 µM (inactive); in experiment [3] (setting [7]) it was > 80 µM; in experiment [4] (setting [7]), 2.15 µM; in experiment [4] (run 2, dose range 1), > 80 µM; in experiment [4] (run 3, dose range 1), 2.15 µM.

In the case of `CC(=O)OCCCNc1cc(Sc2ccc(Cl)cc2)c2nonc2c1[N+](=O)[O-]`, the IC50 is 3.22 µM in experiment [1] (CXCR6, dose range 1); 3.05 µM in experiment [1] (setting [5]); 2.88 µM in experiment [1] (CXCR6, run 2, dose range 1); 1.97 µM in experiment [2] (CCR6, dose range 1); 2.12 µM in experiment [2] (setting [6]); 2.27 µM in experiment [2] (CCR6, run 2, dose range 1). Besides, the IC50 in experiment [3] (dose range 1) was 39.8 µM; in experiment [3] (setting [7]), 39.8 µM; in experiment [4] (dose range 1) it was 5.08 µM; in experiment [4] (setting [7]), 4.65 µM; in experiment [4] (run 2, dose range 1), 4.27 µM; in experiment [4] (run 3, dose range 1), 4.6 µM. The inhibition in experiment [1] was 145%.

`COc1ccc(-n2c(O)c(/C=N/Nc3nc(C)cc(C)n3)c3ccccc3c2=O)cc1OC`: the IC50 is > 80 µM (inactive) in experiment [1] (CXCR6, dose range 1); > 80 µM in experiment [1] (setting [5]); > 80 µM in experiment [1] (CXCR6, run 2, dose range 1); 31.3 µM in experiment [2] (CCR6, dose range 1); 29.2 µM in experiment [2] (setting [6]); 27.2 µM in experiment [2] (CCR6, run 2, dose range 1). In addition, the IC50 is > 80 µM (inactive) in experiment [3] (dose range 1); > 80 µM in experiment [3] (setting [7]); 49.6 µM in experiment [4] (setting [7]); > 80 µM in experiment [4] (run 2, dose range 1); 49.6 µM in experiment [4] (run 3, dose range 1). Besides, in experiment [1], the inhibition turned out to be 118%.

With `O=c1oc2ccccc2c(Cl)c1CN1CCCCC1`, the IC50 is 7.83 µM in experiment [1] (CXCR6, dose range 1); 7.76 µM in experiment [1] (setting [5]); 7.68 µM in experiment [1] (CXCR6, run 2, dose range 1); 5.59 µM in experiment [2] (CCR6, dose range 1); 6.07 µM in experiment [2] (setting [6]); 6.55 µM in experiment [2] (CCR6, run 2, dose range 1). Further, the IC50 in experiment [3] (dose range 1) is 25.6 µM; in experiment [3] (setting [7]), 25.6 µM; in experiment [4] (dose range 1), 13.2 µM; in experiment [4] (setting [7]) it was 17.9 µM; in experiment [4] (run 2, dose range 1) it was 21.6 µM; in experiment [4] (run 3, dose range 1), 18.9 µM. For the same compound, in experiment [1], the inhibition worked out at 125%.

With `CCn1c(=O)c([N+](=O)[O-])c(Cl)c2ccccc21`, the IC50 in experiment [1] (CXCR6, dose range 1) was 4.19 µM; in experiment [1] (setting [5]), 7.64 µM; in experiment [1] (CXCR6, run 1, dose range 2) it was 4.43 µM; in experiment [1] (CXCR6, run 2, dose range 1), 17.8 µM; in experiment [1] (CXCR6, run 2, dose range 2) it was 4.13 µM; in experiment [2] (CCR6, dose range 1) it was 3.29 µM. The IC50 in experiment [2] (setting [6]) is 3.6 µM; in experiment [2] (CCR6, run 2, dose range 1) it was 3.91 µM; in experiment [3] (dose range 1) it was > 80 µM (inactive); in experiment [3] (setting [7]) it was > 80 µM; in experiment [4] (dose range 1), 31.9 µM; in experiment [4] (setting [7]), 35.8 µM. The IC50 is 21.3 µM in experiment [4] (run 2, dose range 1) and 54.3 µM in experiment [4] (run 3, dose range 1).

As for `O=C(C#Cc1ccccc1)c1ccco1`, the IC50 was 11.8 µM in experiment [1] (CXCR6, dose range 1); 9.68 µM in experiment [1] (setting [5]); 9.59 µM in experiment [1] (CXCR6, run 1, dose range 2); 9.18 µM in experiment [1] (CXCR6, run 2, dose range 1); 8.16 µM in experiment [1] (CXCR6, run 2, dose range 2); 9.49 µM in experiment [2] (CCR6, dose range 1). The IC50 is 9.89 µM in experiment [2] (setting [6]); 10.3 µM in experiment [2] (CCR6, run 2, dose range 1); > 80 µM (inactive) in experiment [3] (dose range 1); > 80 µM in experiment [3] (setting [7]); 16.1 µM in experiment [4] (dose range 1); 14 µM in experiment [4] (setting [7]). For the same compound, the half-maximal inhibitory concentration (IC50) turned out to be 13.1 µM in experiment [4] (run 2, dose range 1) and 12.8 µM in experiment [4] (run 3, dose range 1).

Consider `Cc1cc(C)c2ccc(N)nc2c1O`, for which the IC50 was > 80 µM (inactive) in experiment [1] (CXCR6, dose range 1); > 80 µM in experiment [1] (setting [5]); > 80 µM in experiment [1] (CXCR6, run 2, dose range 1); > 80 µM in experiment [2] (setting [6]); > 80 µM in experiment [2] (CCR6, run 2, dose range 1); > 80 µM (inactive) in experiment [3] (dose range 1). Besides, the IC50 is > 80 µM in experiment [3] (setting [7]); > 80 µM in experiment [4] (setting [7]); > 80 µM in experiment [4] (run 2, dose range 1); > 80 µM in experiment [4] (run 3, dose range 1). The inhibition in experiment [1] is -25.6%.

As to `O=[N+]([O-])c1c(NCCCO)cc(Sc2ccc(Cl)cc2)c2nonc12`, the IC50 result in experiment [1] (CXCR6, dose range 1) was “inactive”. The IC50 in experiment [1] (setting [5]) is 11.3 µM; in experiment [1] (CXCR6, run 1, dose range 2), 3.9 µM; in experiment [1] (CXCR6, run 2, dose range 1), > 80 µM; in experiment [1] (CXCR6, run 2, dose range 2) it was 3.24 µM; in experiment [2] (CCR6, dose range 1), 2.58 µM; in experiment [2] (setting [6]), 12.9 µM. Also, the IC50 in experiment [2] (CCR6, run 2, dose range 1) was 23.2 µM; in experiment [3] (dose range 1), > 80 µM (inactive); in experiment [3] (setting [7]), > 80 µM; in experiment [4] (dose range 1), > 80 µM (inactive); in experiment [4] (setting [7]), > 80 µM; in experiment [4] (run 2, dose range 1), > 80 µM. Moreover, in experiment [4] (run 3, dose range 1), the IC50 is > 80 µM.

Turning to `FC(F)(F)c1cnc(NNC(=S)Nc2ccc(Cl)cc2)c(Cl)c1`, the IC50 result in experiment [1] (CXCR6, dose range 1) was “inactive”. Also, the IC50 in experiment [1] (setting [5]) is 12.1 µM; in experiment [1] (CXCR6, run 1, dose range 2) it was 7.71 µM; in experiment [1] (CXCR6, run 2, dose range 1) it was 14.5 µM; in experiment [1] (CXCR6, run 2, dose range 2), 14.1 µM; in experiment [2] (CCR6, dose range 1) it was 10.9 µM; in experiment [2] (setting [6]) it was 10.5 µM. The IC50 in experiment [2] (CCR6, run 2, dose range 1) was 10.1 µM; in experiment [3] (dose range 1), 40.5 µM; in experiment [3] (setting [7]), 40.5 µM; in experiment [4] (dose range 1), 12.3 µM; in experiment [4] (setting [7]), 12.6 µM; in experiment [4] (run 2, dose range 1) it was 17 µM. The same compound registered an IC50 in experiment [4] (run 3, dose range 1) of 8.55 µM.

Source of the values: PubChem BioAssay AID624129 (Sanford-Burnham Center for Chemical Genomics, 2012).
